Results reported in PubChem BioAssay (NCI).
Values joined by “and” are separate entries in the source; they are usually repeats but may differ in a detail not shown here. Equal entries are not always repeated.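 48-hour exposure; five concentrations; linearly interpolated endpoints. At the GI50, growth is halved. The concentration for full growth arrest is given as TGI.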

Tests used:
Test in all cases: NCI tumour cell line growth inhibition, 48 h
[1] = system: HOP-92 NSCLC
[2] = system: M14 melanoma
[3] = system: K-562 leukemia
[4] = system: U251 CNS
[5] = system: RXF 393 renal
[6] = system: OVCAR-8 ovarian
[7] = system: SNB-75 CNS
[8] = system: NCI-H23 lung
[9] = system: OVCAR-3 ovarian
[10] = system: NCI-H226 lung

| Compound | GI50 [1] [µM] | TGI [1] | GI50 [2] | TGI [2] | GI50 [3] | TGI [3] | GI50 [4] | TGI [4] [µM] | GI50 [5] | TGI [5] | GI50 [6] | TGI [6] [µM] | GI50 [7] [µM] | TGI [7] [µM] | GI50 [8] | TGI [8] [µM] | GI50 [9] | TGI [9] | GI50 [10] | TGI [10] |
| --- | --- | --- | --- | --- | --- | --- | --- | --- | --- | --- | --- | --- | --- | --- | --- | --- | --- | --- | --- | --- |
| CC(=O)OC1CCC2(C)C(=CCC3C4CC(CN5CC5)C(=O)C4(C)CCC32)C1 (stereo unspecified) | 11.3 | 24.1 µM | 14.2 µM | 31.7 µM | 3.33 µM | 14.2 µM | 13.6 µM | 27.6 | 9.77 µM | 24.1 µM | 12.2 µM | 26.2 | 10.8 | 22.7 | 14 µM | 30 | 4.63 µM | 14.8 µM | 14.8 µM | 40.2 µM |
| CCn1c(SC)nnc1-c1cc2c([nH]c3ccccc32)c(-c2cccc(O)c2)n1 | 1.1 | 9.08 µM | 1.48 µM | 12.5 µM | 0.547 µM | > 100 µM | 2.97 µM | 19.1 | 1.14 µM | 3.18 µM | 3.62 µM | 24.5 | 1.3 | 3.94 | 4.51 µM | 50.6 | 1.67 µM | 5.35 µM | 1.91 µM | 4.9 µM |
| OCCn1c(-c2ccncc2)c(-c2ccc(F)cc2)c2ncccc21 | 9.5 | > 25 µM | > 25 µM | > 25 µM | > 25 µM | > 25 µM | > 25 µM | > 25 | > 25 µM | > 25 µM | > 25 µM | > 25 | > 25 | > 25 | > 25 µM | > 25 | > 25 µM | > 25 µM | > 25 µM | > 25 µM |
| O=C(NCc1cccnc1)c1ccc([N+](=O)[O-])o1 | > 17.2 | 32.2 µM | 1.42 µM | 5.12 µM | 2.06 µM | > 32.5 µM | 1.03 µM | 3.83 | 1.15 µM | 5.12 µM | 2.37 µM | 14.5 | 1.18 | 7.24 | 2.26 µM | 6.85 | 1.61 µM | 6.89 µM | 4.21 µM | 13.2 µM |
| N#Cc1c(N/N=C/c2c(Cl)cccc2Cl)nc(N)nc1N1CCCC1 | 9.41 | > 100 µM | 1.36 µM | > 100 µM | 2.87 µM | 6.75 µM | 2.51 µM | > 100 | 2.34 µM | > 100 µM | 3.53 µM | 40.5 | 2.01 | > 100 | 1.16 µM | 9.11 | 0.878 µM | > 100 µM | 11.8 µM | > 100 µM |
| C/C(=N\NC(=O)c1ccncc1)c1ccccc1O | 2.27 | > 100 µM | 4.95 µM | 89.1 µM | 5.78 µM | > 100 µM | 3.31 µM | > 100 | 8.15 µM | > 100 µM | 3.05 µM | > 100 | > 100 | > 100 | 4.34 µM | > 100 | 3.35 µM | > 100 µM | 6.27 µM | > 100 µM |
| CC(C)c1nc(Cl)c(Cl)c(Cl)n1 |  | 14.2 µM |  | 19 µM |  | > 100 µM |  | 12.8 |  | 7.97 µM |  | 8.07 |  | 25.8 |  | 22.3 |  | 8.2 µM |  | 38.9 µM |
| CN1CCN(Cc2ccc(NC(=O)c3cncc(C#Cc4cnc5cccnn45)c3)cc2C(F)(F)F)CC1 | 0.492 | 3.13 µM | 1.02 µM | 3.34 µM | 0.005 µM | 21.6 µM | 1.48 µM | 5.42 | 0.783 µM | 1.71 µM | 1.66 µM | 6.3 | 0.914 | 1.88 | 0.892 µM | 2.32 | 1.76 µM | 5.5 µM | 0.286 µM | 2.48 µM |
| Oc1ccc(CCNc2nc3ccccc3c3[nH]c4ccccc4c23)cc1 | 1.3 | 2.82 µM | 1.73 µM | 3.26 µM | 1.91 µM | > 100 µM |  |  | 1.25 µM | 2.66 µM | 1.02 µM | 2.29 | 1.81 | 3.82 | 1.96 µM | 4.27 | 1.6 µM | 3.24 µM | 2.65 µM | 7.3 µM |
| NC1CC(n2ccc(=O)[nH]c2=O)OC1C(O)CO (stereo unspecified) |  | > 100 µM |  | > 100 µM |  | > 100 µM |  | > 100 |  | > 100 µM |  | > 100 |  | > 100 |  | > 100 |  | > 100 µM |  | > 100 µM |
| CCNc1nc(-c2ccc(Cl)c(OC)c2)c(-c2ccnc(NCCNS(=O)(=O)c3ccc(Cl)cc3)n2)s1 | 2.64 | 9.58 µM | 3.82 µM | > 100 µM | 3.17 µM | > 100 µM | 3.24 µM | 10.3 | 2 µM | 5.1 µM | 3.88 µM | > 100 | 2.35 | 29.8 | 3.5 µM | > 100 | 2.45 µM | 5.27 µM | 2.81 µM | 14.3 µM |
| CCOC(=O)/C(=C/c1ccc[nH]1)P(=O)(OCC)OCC |  | > 100 µM |  | > 100 µM |  | > 100 µM |  | > 100 |  | > 100 µM |  | > 100 |  | > 100 |  | > 100 |  | > 100 µM |  | > 100 µM |
| O=C1COc2c(CCNCCN(C(=O)CCNCCc3ccc(Cl)c(Cl)c3)C3CCCCC3)ccc(O)c2N1 | < 0.0353 | 17.5 µM | 16.6 µM | 31.8 µM | 16.2 µM | 34.1 µM | 16.3 µM | 32 | 14.8 µM | 30.7 µM | 17.2 µM | 34 | 3.65 | 19.4 | 18.1 µM | 33.9 | 16.8 µM | 32.1 µM | 17.7 µM | 35.9 µM |
| CCC(=C(c1ccc(OCCN(CC)CC)cc1)c1ccc(OCCN(CC)CC)cc1)c1ccc(Cl)cc1 | 0.5 | 1.18 µM | 0.585 µM | 1.11 µM | 0.156 µM | 0.898 µM | 0.57 µM | 1.14 | 0.485 µM | 0.962 µM | 0.685 µM | 1.51 | 0.668 | 2.32 | 0.652 µM | 1.41 | 0.577 µM | 1.14 µM | 0.679 µM | 1.48 µM |
| CC(=O)Nc1ccc(C(=O)COc2cccc(/C=C3\CCc4ccccc4C3=O)c2)cc1 | 15.1 | 60.9 µM | 14.4 µM | 34 µM | 2.8 µM | 12.7 µM | 12.4 µM | 27.8 | 24.8 µM | 57.8 µM | 23.6 µM | > 100 | 13 | 64.7 | 14.4 µM | 43.4 | 17.4 µM | 39.1 µM | 16.3 µM | > 100 µM |
| CS(=O)(=O)Nc1ccc(Nc2c3ccccc3nc3cc(Cl)ccc23)cc1 | 0.334 | 4.7 µM | 0.812 µM | 15.1 µM | 2.11 µM | > 48.6 µM | 0.828 µM | 13.5 | 1.77 µM | 10.6 µM | 1.76 µM | 15.6 | 1.29 | 15.9 | 1.67 µM | 18.9 | 7.28 µM | 21.5 µM | 0.672 µM | 6.17 µM |
| COc1cc2nccc(Oc3ccc(NC(=O)C4(C(=O)Nc5ccc(F)cc5)CC4)cc3)c2cc1OC |  | 8.01 µM and 1.46 µM | > 10 µM and 2.9 µM | > 10 µM and 18.3 µM | 2.15 µM and 0.281 µM | > 10 µM and 2.82 µM | > 10 µM and 4.31 µM | > 100 | > 10 µM and 2.17 µM | > 10 µM and 6.93 µM | > 10 µM and 5.74 µM | > 100 | 0.27 | 8.14 | > 10 µM and 2.83 µM | > 100 | > 10 µM and 6.03 µM | > 10 µM and 54 µM | 2.29 µM and 1.7 µM | > 10 µM and 5.52 µM |
| COc1cc(/C=C/C(=O)c2c(-c3ccc(Cl)cc3)nc3sc(C)nn23)cc(OC)c1OC | 3.48 | 25.1 µM | 55.2 µM | > 100 µM | 4.49 µM | > 100 µM | 17.1 µM | > 100 | 17.3 µM | > 100 µM | 5.62 µM | > 100 | 12.8 | 33.7 | 24.8 µM | > 100 | 35.7 µM | > 100 µM | 23.7 µM | > 100 µM |
| Cc1c(-c2ccc(N3CCc4cccc(C(=O)Nc5nc6ccccc6s5)c4C3)nc2C(=O)O)cnn1CC12CC3CC(CC(C3)C1)C2 | < 0.01 | < 0.01 µM | 7.7 µM | 25.4 µM | 7.51 µM | > 100 µM | 7.04 µM | 30.2 | 0.0853 µM | 4.61 µM | 7.49 µM | 33 | 9.35 | 36.8 | 13.4 µM | 35.4 | 6.19 µM | 20.9 µM | 13.7 µM | 50.6 µM |
| COc1cccc(OC)c1/C=N\N1C(=O)c2ccccc2C1=O |  | > 100 µM |  | 58.2 µM |  | > 100 µM |  |  |  | 62.1 µM |  | 89.3 |  | 98.1 |  | > 100 |  | 44.1 µM |  | > 100 µM |
